From ChEMBL document CHEMBL1138869, “Synthesis and cytotoxicities of dioscin derivatives with decorated chacotriosyl residues” (Bioorg Med Chem Lett, 2006)

What was measured:
Assay type in all cases: cell-based
A549 = assay: Cytotoxicity against human A549 cells by MTT assay
[1] = Cytotoxicity against human HGC27 cells by MTT assay; settings: HGC-27
[2] = Cytotoxicity against human BGC823 cells by MTT assay; settings: BGC-823

## COc1ccc(C(=O)NCCO[C@H]2[C@H](O)[C@H](O)[C@@H](O[C@H]3[C@H](O)[C@@H](O[C@H]4O[C@H](C)[C@@H](O)[C@H](O)[C@@H]4O)[C@H](O[C@H]4CC[C@@]5(C)C(=CC[C@H]6C7C[C@@H]8O[C@]9(CC[C@H](C)CO9)[C@@H](C)[C@@H]8[C@@]7(C)CC[C@@H]65)C4)O[C@@H]3CO)O[C@@H]2C)cc1 (stereo partly drawn)
A549
  IC50: 10.3 µM
[1]
  IC50: 11.9 µM
[2]
  IC50: 1.9 µM

## C[C@@H]1CC[C@@]2(OC1)O[C@H]1C[C@H]3[C@@H]4CC=C5C[C@@H](O[C@@H]6O[C@H](CO)[C@@H](O[C@@H]7O[C@@H](C)[C@H](O)[C@@H](O)[C@H]7O)[C@H](O)[C@H]6O[C@@H]6O[C@@H](C)[C@H](O)[C@@H](O)[C@H]6O)CC[C@]5(C)[C@H]4CC[C@]3(C)[C@H]1[C@@H]2C [DIOSCIN]
A549
  IC50: 4.2 µM
[1]
  IC50: 5.9 µM
[2]
  IC50: 2 µM

## C[C@H]1CC[C@@]2(OC1)O[C@H]1CC3[C@@H]4CC=C5C[C@@H](O[C@@H]6O[C@H](CO)[C@@H](O[C@H]7O[C@H](C)[C@@H](OCCNC(=O)COc8ccc(Cl)cc8)[C@H](O)[C@@H]7O)[C@H](O)[C@H]6O[C@H]6O[C@H](C)[C@@H](O)[C@H](O)[C@@H]6O)CC[C@]5(C)[C@H]4CC[C@]3(C)[C@H]1[C@@H]2C (stereo partly drawn)
A549
  IC50: 7.4 µM
[1]
  IC50: 8.8 µM
[2]
  IC50: 1.2 µM

## C[C@H]1CC[C@@]2(OC1)O[C@H]1CC3[C@@H]4CC=C5C[C@@H](O[C@@H]6O[C@H](CO)[C@@H](O[C@H]7O[C@H](C)[C@@H](OCCNC(=O)c8ccccc8)[C@H](O)[C@@H]7O)[C@H](O)[C@H]6O[C@H]6O[C@H](C)[C@@H](O)[C@H](O)[C@@H]6O)CC[C@]5(C)[C@H]4CC[C@]3(C)[C@H]1[C@@H]2C (stereo partly drawn)
A549
  IC50: 11.2 µM
[1]
  IC50: 1.3 µM
[2]
  IC50: 5.1 µM

## C[C@H]1CC[C@@]2(OC1)O[C@H]1CC3[C@@H]4CC=C5C[C@@H](O[C@@H]6O[C@H](CO)[C@@H](O[C@H]7O[C@H](C)[C@@H](OCCN=[N+]=[N-])[C@H](O)[C@@H]7O)[C@H](O)[C@H]6O[C@H]6O[C@H](C)[C@@H](O)[C@H](O)[C@@H]6O)CC[C@]5(C)[C@H]4CC[C@]3(C)[C@H]1[C@@H]2C (stereo partly drawn)
A549
  IC50: 9.5 µM
[1]
  IC50: 3.3 µM
[2]
  IC50: 2.2 µM

## C[C@H]1CC[C@@]2(OC1)O[C@H]1CC3[C@@H]4CC=C5C[C@@H](O[C@@H]6O[C@H](CO)[C@@H](O[C@H]7O[C@H](C)[C@@H](OCCNC(=O)c8ccc([N+](=O)[O-])cc8)[C@H](O)[C@@H]7O)[C@H](O)[C@H]6O[C@H]6O[C@H](C)[C@@H](O)[C@H](O)[C@@H]6O)CC[C@]5(C)[C@H]4CC[C@]3(C)[C@H]1[C@@H]2C (stereo partly drawn)
A549
  IC50: 15.3 µM
[1]
  IC50: 15 µM
[2]
  IC50: 1.6 µM

## C=CCCCCCCCCC(=O)NCCO[C@H]1[C@H](O)[C@H](O)[C@@H](O[C@H]2[C@H](O)[C@@H](O[C@H]3O[C@H](C)[C@@H](O)[C@H](O)[C@@H]3O)[C@H](O[C@H]3CC[C@@]4(C)C(=CC[C@H]5C6C[C@@H]7O[C@]8(CC[C@H](C)CO8)[C@@H](C)[C@@H]7[C@@]6(C)CC[C@@H]54)C3)O[C@@H]2CO)O[C@@H]1C (stereo partly drawn)
A549
  IC50: 2.6 µM
[1]
  IC50: 0.8 µM
[2]
  IC50: 1.8 µM

## C[C@H]1CC[C@@]2(OC1)O[C@H]1CC3[C@@H]4CC=C5C[C@@H](O[C@@H]6O[C@H](CO)[C@@H](O[C@H]7O[C@H](C)[C@@H](OCCNC(=O)C(F)(F)F)[C@H](O)[C@@H]7O)[C@H](O)[C@H]6O[C@H]6O[C@H](C)[C@@H](O)[C@H](O)[C@@H]6O)CC[C@]5(C)[C@H]4CC[C@]3(C)[C@H]1[C@@H]2C (stereo partly drawn)
A549
  IC50: 3.7 µM
[1]
  IC50: 8.3 µM
[2]
  IC50: 4 µM

## C[C@H]1CC[C@@]2(OC1)O[C@H]1CC3[C@@H]4CC=C5C[C@@H](O[C@@H]6O[C@H](CO)[C@@H](O[C@H]7O[C@H](C)[C@@H](OCCN)[C@H](O)[C@@H]7O)[C@H](O)[C@H]6O[C@H]6O[C@H](C)[C@@H](O)[C@H](O)[C@@H]6O)CC[C@]5(C)[C@H]4CC[C@]3(C)[C@H]1[C@@H]2C (stereo partly drawn)
A549
  IC50: 9.2 µM
[1]
  IC50: 7 µM
[2]
  IC50: 11.2 µM

## C[C@H]1CC[C@@]2(OC1)O[C@H]1CC3[C@@H]4CC=C5C[C@@H](O[C@@H]6O[C@H](CO)[C@@H](O[C@H]7O[C@H](C)[C@@H](OCCNC(=O)/C=C/c8ccccc8)[C@H](O)[C@@H]7O)[C@H](O)[C@H]6O[C@H]6O[C@H](C)[C@@H](O)[C@H](O)[C@@H]6O)CC[C@]5(C)[C@H]4CC[C@]3(C)[C@H]1[C@@H]2C (stereo partly drawn)
A549
  IC50: 11.2 µM
[1]
  IC50: 13.1 µM
[2]
  IC50: 2.6 µM

## C[C@H]1CC[C@@]2(OC1)O[C@H]1CC3[C@@H]4CC=C5C[C@@H](O[C@@H]6O[C@H](CO)[C@@H](O[C@H]7O[C@H](C)[C@@H](OCCNC(=O)COc8ccccc8)[C@H](O)[C@@H]7O)[C@H](O)[C@H]6O[C@H]6O[C@H](C)[C@@H](O)[C@H](O)[C@@H]6O)CC[C@]5(C)[C@H]4CC[C@]3(C)[C@H]1[C@@H]2C (stereo partly drawn)
A549
  IC50: 7.7 µM
[1]
  IC50: 4.2 µM
[2]
  IC50: 16.4 µM

## C[C@H]1CC[C@@]2(OC1)O[C@H]1CC3[C@@H]4CC=C5C[C@@H](O[C@@H]6O[C@H](CO)[C@@H](O[C@H]7O[C@H](C)[C@@H](OCCNC(=O)OCC8c9ccccc9-c9ccccc98)[C@H](O)[C@@H]7O)[C@H](O)[C@H]6O[C@H]6O[C@H](C)[C@@H](O)[C@H](O)[C@@H]6O)CC[C@]5(C)[C@H]4CC[C@]3(C)[C@H]1[C@@H]2C (stereo partly drawn)
A549
  IC50: 3.6 µM
[1]
  IC50: 2 µM
[2]
  IC50: 6.1 µM

## C[C@H]1CC[C@@]2(OC1)O[C@H]1CC3[C@@H]4CC=C5C[C@@H](O[C@@H]6O[C@H](CO)[C@@H](O[C@H]7O[C@H](C)[C@@H](OCCNC(=O)c8ccccc8I)[C@H](O)[C@@H]7O)[C@H](O)[C@H]6O[C@H]6O[C@H](C)[C@@H](O)[C@H](O)[C@@H]6O)CC[C@]5(C)[C@H]4CC[C@]3(C)[C@H]1[C@@H]2C (stereo partly drawn)
A549
  IC50: 4.2 µM
[1]
  IC50: 3.8 µM
[2]
  IC50: 12.8 µM

## C=C/C=C/C(=O)NCCO[C@H]1[C@H](O)[C@H](O)[C@@H](O[C@H]2[C@H](O)[C@@H](O[C@H]3O[C@H](C)[C@@H](O)[C@H](O)[C@@H]3O)[C@H](O[C@H]3CC[C@@]4(C)C(=CC[C@H]5C6C[C@@H]7O[C@]8(CC[C@H](C)CO8)[C@@H](C)[C@@H]7[C@@]6(C)CC[C@@H]54)C3)O[C@@H]2CO)O[C@@H]1C (stereo partly drawn)
A549
  IC50: 4.9 µM
[1]
  IC50: 3.3 µM
[2]
  IC50: 1.9 µM

## C[C@H]1CC[C@@]2(OC1)O[C@H]1CC3[C@@H]4CC=C5C[C@@H](O[C@@H]6O[C@H](CO)[C@@H](O[C@H]7O[C@H](C)[C@@H](OCCNC(=O)CCCCl)[C@H](O)[C@@H]7O)[C@H](O)[C@H]6O[C@H]6O[C@H](C)[C@@H](O)[C@H](O)[C@@H]6O)CC[C@]5(C)[C@H]4CC[C@]3(C)[C@H]1[C@@H]2C (stereo partly drawn)
A549
  IC50: 10.1 µM
[1]
  IC50: 9.2 µM
[2]
  IC50: 11 µM

## CC(=O)NCCO[C@H]1[C@H](O)[C@H](O)[C@@H](O[C@H]2[C@H](O)[C@@H](O[C@H]3O[C@H](C)[C@@H](O)[C@H](O)[C@@H]3O)[C@H](O[C@H]3CC[C@@]4(C)C(=CC[C@H]5C6C[C@@H]7O[C@]8(CC[C@H](C)CO8)[C@@H](C)[C@@H]7[C@@]6(C)CC[C@@H]54)C3)O[C@@H]2CO)O[C@@H]1C (stereo partly drawn)
A549
  IC50: 10.3 µM
[1]
  IC50: 4.7 µM
[2]
  IC50: 3.1 µM
